Source: ChEMBL document CHEMBL1201862, “PubChem BioAssay data set” (2004)
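Grown in 96-well plates, cells were treated for 48 hours with each compound at five concentrations. Insufficient inhibition: endpoint recorded as highest concentration tested. Abbreviation: GI50, concentration required for 50% inhibition of growth.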 The source made the active and inactive calls. Rule as the data show it: active = GI50 up to about 1.1 µM and inactive = higher.

Legend:
Test in all cases: NCI anticancer screen, dose series, 48 h
KM-20L2 = system: KM-20L2
LXFL 529 = system: LXFL 529
SNB-78 = system: SNB-78
DMS-273 = system: DMS-273
DMS-114 = system: DMS-114
HOP-18 = system: HOP-18
XF498 = system: XF498
M19-MEL = system: M19-MEL
RXF 631 = system: RXF 631

Row | Compound | GI50 (KM-20L2) | GI50 (LXFL 529) | GI50 (SNB-78) | GI50 (DMS-273) | GI50 (DMS-114) | GI50 (HOP-18) | GI50 (XF498) | GI50 (M19-MEL) | GI50 (RXF 631)
1 | COC(=O)c1cc2c3c(ccc2[nH]1)N(C(=O)c1cc2c4c(ccc2[nH]1)N(C(=O)c1cc2c5c(ccc2[nH]1)N(C(N)=O)CC5)CC4)CC3 | > 63.8 µM (inactive) | 2.07 µM (inactive) | > 100 µM (inactive) | 4.06 µM (inactive) | 3.7 µM (inactive) | > 100 µM (inactive) | – | – | –
2 | CC1(C)O/C(=C\c2ccccc2)C(=O)/C(=C/c2ccccc2)O1 | – | 20.4 µM (inactive) | 38.5 µM (inactive) | 42.6 µM (inactive) | 17.3 µM (inactive) | > 100 µM (inactive) | 18.5 µM (inactive) | 28.6 µM (inactive) | 33.8 µM (inactive)
3 | CN(C)NC(=O)/C(=C/c1ccc(Cl)cc1)NC(=O)c1ccccc1 | > 100 µM (inactive) | > 100 µM (inactive) | – | 29.4 µM (inactive) | – | > 100 µM (inactive) | > 100 µM (inactive) | > 100 µM (inactive) | 55.3 µM (inactive)
4 | COc1cc2ccnc3c2c(c1OC)CC1CC(O)C(OC)CC31 (stereo not drawn) | 43.2 µM (inactive) | 36.6 µM (inactive) | > 100 µM (inactive) | 34 µM (inactive) | 44.5 µM (inactive) | 21.8 µM (inactive) | 44.7 µM (inactive) | 96.2 µM (inactive) | –
5 | CNC(C)Cc1ccccc1O (stereo not drawn) | > 100 µM (inactive) | > 100 µM (inactive) | > 100 µM (inactive) | > 100 µM (inactive) | > 100 µM (inactive) | > 100 µM (inactive) | – | – | –
6 | CN1CC[C@]2(C)c3cc(O)ccc3CC3CCCC1C32C (stereo partly drawn) | > 100 µM (inactive) | > 100 µM (inactive) | > 100 µM (inactive) | – | > 100 µM (inactive) | 26.6 µM (inactive) | > 100 µM (inactive) | > 100 µM (inactive) | > 100 µM (inactive)
7 | Oc1ccc(-c2n[nH]c(S)n2)cc1 | > 100 µM (inactive) | > 100 µM (inactive) | > 100 µM (inactive) | > 100 µM (inactive) | > 100 µM (inactive) | > 100 µM (inactive) | > 100 µM (inactive) | > 100 µM (inactive) | –
8 | CCO[C@]12C[C@H](OC)[C@@]3(O)CC(C1[C@H]3OCc1ccccc1)C13C4C2[C@H](OC)C1[C@](COC)(CN4CC)[C@H](O)C[C@@H]3OC (stereo partly drawn) | > 100 µM (inactive) | > 100 µM (inactive) | > 100 µM (inactive) | > 100 µM (inactive) | > 100 µM (inactive) | – | > 100 µM (inactive) | > 100 µM (inactive) | –
9 | Cc1ccc2[nH]c3c4c5ccccc5nc-4c[nH]c3c2c1 | 15.1 µM (inactive) | 19.2 µM (inactive) | 17 µM (inactive) | – | 16.1 µM (inactive) | 14.9 µM (inactive) | 21.4 µM (inactive) | – | –
10 | CCOC(=O)C(=O)Nc1ccc([N+](=O)[O-])cc1C#N | – | > 100 µM (inactive) | – | – | > 100 µM (inactive) | > 100 µM (inactive) | > 100 µM (inactive) | > 100 µM (inactive) | > 100 µM (inactive)
11 | Cc1nc(N)nc(N)c1CCCCc1ccc(N)cc1 | 3.74 µM (inactive) | 6.46 µM (inactive) | 9.46 µM (inactive) | – | – | – | 11.4 µM (inactive) | 8.55 µM (inactive) | –
12 | O=C1C2c3[nH]c4ccccc4c3[C@@H]3CCCCC3C2C(=O)N1c1ccccc1 (stereo partly drawn) | – | 17.6 µM (inactive) | 19.3 µM (inactive) | 17.3 µM (inactive) | 22.1 µM (inactive) | – | – | 19.1 µM (inactive) | 14.8 µM (inactive)
13 | O=C1C(Br)=C(Br)C(=O)c2ccc(=O)ccc21 | > 100 µM (inactive) | 17.7 µM (inactive) | 29.3 µM (inactive) | 48 µM (inactive) | 20.4 µM (inactive) | 24.2 µM (inactive) | 24 µM (inactive) | 17.2 µM (inactive) | 18.7 µM (inactive)
14 | Cc1cc(N(CCC#N)CCC#N)ccc1/C=C1\N=C(c2cc([N+](=O)[O-])ccc2Cl)N(NC(=O)c2ccc(/N=C\c3ccc(N(CCC#N)S(C)(=O)=O)cc3C)cc2)C1=O | 58.2 µM (inactive) | 64.3 µM (inactive) | > 100 µM (inactive) | 41.5 µM (inactive) | 85.5 µM (inactive) | > 100 µM (inactive) | > 100 µM (inactive) | 73.1 µM (inactive) | > 100 µM (inactive)
15 | COC(=O)C1CC(C(=O)OC)c2nc3cc(C)ccc3nc21 (stereo not drawn) | > 100 µM (inactive) | > 100 µM (inactive) | > 100 µM (inactive) | > 100 µM (inactive) | > 100 µM (inactive) | 51.4 µM (inactive) | > 100 µM (inactive) | > 100 µM (inactive) | > 100 µM (inactive)
16 | Cc1cccc(N2C(=O)/C(=C/c3ccc(N(CCC#N)CCC#N)cc3C)N=C2c2cc([N+](=O)[O-])ccc2Cl)c1 | – | > 100 µM (inactive) | – | > 100 µM (inactive) | 88.9 µM (inactive) | > 100 µM (inactive) | – | > 100 µM (inactive) | > 100 µM (inactive)
17 | CCCOc1ccc(/C=C/c2cc(OC)c(OC)c(OC)c2)cc1 | 0.2 µM (active) | 0.558 µM (active) | 1.29 µM (inactive) | 0.147 µM (active) | 0.347 µM (active) | > 100 µM (inactive) | 0.56 µM (active) | 0.682 µM (active) | 2.03 µM (inactive)
18 | O=C(c1ccco1)N(C(=S)N1CCN(c2ccccc2)CC1)c1ccccc1 | > 100 µM (inactive) | > 100 µM (inactive) | > 100 µM (inactive) | > 100 µM (inactive) | > 100 µM (inactive) | > 100 µM (inactive) | – | > 100 µM (inactive) | –
19 | c1ccc2c(c1)nnn2CNc1ccc(N2CCCCC2)cc1 | > 100 µM (inactive) | > 100 µM (inactive) | > 100 µM (inactive) | > 100 µM (inactive) | > 100 µM (inactive) | > 100 µM (inactive) | > 100 µM (inactive) | – | –
20 | CCOP(=O)(OCC)/C(C#N)=C\c1cccc2ccccc12 | > 100 µM (inactive) | – | 48.2 µM (inactive) | – | – | – | – | > 100 µM (inactive) | –
21 | COC(=O)C(C(=O)C(=O)Nc1ccc(C)cc1C)c1nc2ccc([N+](=O)[O-])cc2nc1O (stereo not drawn) | > 100 µM (inactive) | 56.8 µM (inactive) | > 100 µM (inactive) | 97.7 µM (inactive) | 33.4 µM (inactive) | > 100 µM (inactive) | > 100 µM (inactive) | > 100 µM (inactive) | > 100 µM (inactive)
22 | NCCCC(N/C=C1/N=C(c2ccccc2)OC1=O)C(=O)O (stereo not drawn) | > 100 µM (inactive) | 96.8 µM (inactive) | > 100 µM (inactive) | > 100 µM (inactive) | > 100 µM (inactive) | – | > 100 µM (inactive) | > 100 µM (inactive) | –
23 | O=C(/C=C/c1ccc(OCCSCCCCCCCCCCSCCOc2ccc(/C=C/C(=O)c3ccc(Cl)cc3)cc2)cc1)c1ccc(Cl)cc1 | > 100 µM (inactive) | > 100 µM (inactive) | 37.2 µM (inactive) | > 100 µM (inactive) | > 100 µM (inactive) | > 100 µM (inactive) | – | > 100 µM (inactive) | > 66.1 µM (inactive)
24 | Cc1ccc(C(=O)C(C)N)cc1 (stereo not drawn) | > 100 µM (inactive) | > 100 µM (inactive) | > 100 µM (inactive) | > 100 µM (inactive) | > 100 µM (inactive) | > 100 µM (inactive) | > 100 µM (inactive) | – | –
25 | COc1cc(C2(C)SCCCS2)cc(OC)c1OC | > 100 µM (inactive) | > 100 µM (inactive) | – | > 100 µM (inactive) | > 100 µM (inactive) | > 100 µM (inactive) | – | > 100 µM (inactive) | > 100 µM (inactive)
